Source: patent US20250032489A1, “MIXED LINEAGE KINASE INHIBITORS AND METHODS OF USE” (The U.S.A., as represented by the Secretary, Department of …, priority 2022, published 2025)
Where two headings read alike, the source gives them in different places.

Key:
[1] = system: c-MYC; assay: Western blot of c-MYC abundance; type: cell-based
Method: (§1) Generally, cells were plated in six-well or 35-mm plates for 24 hours, after which doxycycline was added or treatment with specific inhibitor was administered using 5% FBS media for 48 hours. After appropriate treatment time, cells were washed with ice-cold phosphate-buffered saline without Ca and Mg (Quality Biological) and then lysed on ice with RIPA buffer ([…], 1.0% IGEPAL® CA-630, 0.5% sodium deoxycholate, 0.1% SDS, 50 mM Tris, pH 8.0) (Sigma-Aldrich) supplemented with protease inhibitor tablet (Sigma-Aldrich) and phosphatase inhibitor cocktails 2 and 3 (Sigma-Aldrich) followed by centrifugation at 15,000 rpm for 10 minutes at 4° C. Protein concentrations were determined from the cell lysate by using 660 nm Protein Assay Reagent (Pierce). Cell extracts were denatured, subjected to SDS-PAGE, transferred to PVDF membranes (Bio-Rad) and blocked for 2 hours using 5% bovine serum albumin (BSA) in phosphate-buffered saline and 0.1% Tween® 20 (PBS-T). The membranes were incubated with the specific antibodies overnight in 5% BSA/PBST at 4° C. followed by a 1 hour incubation with the appropriate horseradish peroxidase-conjugated secondary antibodies and signal was detected by chemiluminescence (Thermo Fisher).

[2] = system: HNSCC PDX tumors lacking amplified LZK; assay: HNSCC PDX mouse models that lack amplified LZK; type: in vivo; conditions: 50 mg/kg, q.d., five days on/two days off
[3] = system: 3q-amplified HNSCC PDX tumors; assay: HNSCC PDX mouse model with amplified MAP3K13 (LZK); type: in vivo
Method: Tumor pieces at approximately 2×2×2 mm^3 from an HNSCC patient containing amplified MAP3K13 were implanted subcutaneously with Matrigel (Corning) in the mice according to the SOP50101 Implantation and Cryopreservation of Tissue for PDX Generation protocol from the NIH Patient-Derived Models Repository (PDMR). Five NSG mice were used for initial implantation of the cryopreserved tumor fragments. Body weights and tumor size were measured twice weekly. […] For the efficacy study, passage one of the fresh PDX tumor fragments were implanted into NSG mice using the protocol stated previously. […] Body weights and tumor sizes were measured twice weekly. At the endpoint of each study, tumors were harvested, cleaned, weighed, and photographed for analysis.

[4] = system: LZK; assay: Immunoblot of JNK signaling in 293T cells overexpressing LZK; type: cell-based; conditions: one-hour treatment
Method: LZK cDNA was prepared from RNA extracted from 293T cells, attB flanking regions were added by PCR, and the BP Clonase reaction was used to insert LZK into pDONR221. From here, the Invitrogen Gateway system was used for cloning into destination vectors. FLAG-tagged (pReceiver-M12, GeneCopoeia) destination vector was conveed into Gateway destination vector for use in transient overexpression assays. The pLenti6.3/TO/V5-DEST vector was used to generate stable overexpression. The drug-resistant construct for LZK was a Q240S mutation that was introduced using a Site-Directed Mutagenesis Kit (Stratagene). The oligonucleotides are listed below in Table 18. 293T cells were transiently transfected using Lipofectamine 2000 (Invitrogen), according to the manufacturer's protocol, with OptiMEM (Gibco). […]
Generally, cells were plated in six-well or 35-mm plates for 24 hours, after which doxycycline was added or treatment with specific inhibitor was administered using 5% FBS media for 48 hours. […] Protein concentrations were determined from the cell lysate by using 660 nm Protein Assay Reagent (Pierce). […] The membranes were incubated with the specific antibodies overnight in 5% BSA/PBST at 4° C. followed by a 1 hour incubation with the appropriate horseradish peroxidase-conjugated secondary antibodies and signal was detected by chemiluminescence (Thermo Fisher).

[5] = system: BICR56 cells; assay: MTS cell viability assay; type: cell-based; conditions: 72 hours MTS
Method: A Cell Titer 96 AQueous One Solution Cell Proliferation Assay (Promega) was used for MTS assays following the manufacturer's protocol. […] MTS was added, cells were incubated for two hours, and absorbance was measured at 490 nm using iMark™ Microplate Absorbance Reader (Bio-Rad). Graphs display percent cell viability relative to the DMSO-treated control sample. EC50 values were determined using GraphPad Prism 8.

[6] = biological target: LZK (Homo sapiens, UniProt O43283, Q240S); assay: Immunoblot of downstream JNK phosphorylation in CAL33 cells with dox-inducible LZK; type: cell-based; conditions: in the presence of inhibitor
Method: (§2) The ViraPower HiPerform T-REx Gateway Expression System (Invitrogen) was used to generate cells with tetracycline-inducible expression of LZK. […] Cell lines were generated by antibiotic selection (blasticidin [Gibco] and geneticin [Gibco]). Doxycycline (Sigma-Aldrich) was used at 1 μg/mL to induce LZK expression.
as §1, with “After” for “Generally, cells were plated in six-well or 35-mm plates for 24 hours, after which doxycycline was added or treatment with specific inhibitor was administered using 5% FBS media for 48 hours. After”

[7] = biological target: T1, LZK (Homo sapiens (Human), UniProt O43283); assay: as above; type: cell-based
Method: as §2
as §1, with “After” for “Generally, cells were plated in six-well or 35-mm plates for 24 hours, after which doxycycline was added or treatment with specific inhibitor was administered using 5% FBS media for 48 hours. After”

[8] = system: ESCC with the 3q amplicon (KYSE30, and KYSE70 cells); assay: MTS assay in ESCC cells; type: cell-based; conditions: compared to control ESCC cells lacking amplified LZK (KYSE410 and OE19)
Method: A Cell Titer 96 AQueous One Solution Cell Proliferation Assay (Promega) was used for MTS assays following the manufacturer's protocol. […] Doxycycline was added where appropriate, and cells were incubated for 72 hours. MTS was added, cells were incubated for two hours, and absorbance was measured at 490 nm using iMark™ Microplate Absorbance Reader (Bio-Rad). Graphs display percent cell viability relative to the DMSO-treated control sample. EC50 values were determined using GraphPad Prism 8.

[9] = system: CAL33 xenografts; assay: HNSCC CAL33 xenograft mouse model; conditions: 100 mg/kg
[10] = system: BEAS-2B cells; assay: Colony formation assay; type: cell-based, human; conditions: 200 nM, 14 days, cells lacking amplified MAP3K13
Method: (§3) Crystal violet assays were used to assess relative cell growth and survival after treatment with specific compounds. In general, cells were plated in triplicate in 12-well plates for 24 hours before drug treatments were added using 10% FBS media. The plates were incubated for 14 days, with the media and drug being replaced every 48 hours. The cells were then washed with phosphate-buffered saline and fixed in ice-cold methanol before being stained with 0.5% crystal violet (Sigma-Aldrich) in 25% methanol. Images were taken using a ChemiDoc MP Imaging System (Bio Rad), and for quantification, the crystal violet stain was dissolved in 33% acetic acid, incubated for 20 minutes with shaking, and read at 595 nm using iMark™ Microplate Absorbance Reader (Bio-Rad). Graphs display percent colony formation relative to the DMSO-treated control sample.

[11] = system: MSK921 cells; assay: Colony formation assay; type: cell-based; conditions: 200 nM, 14 days, cells lacking amplified MAP3K13
Method: as §3

[12] = system: BICR56 cells; assay: Colony formation assay; type: cell-based; conditions: 200 nM, 14 days
Method: as §3

[13] = system: CAL33 cells; assay: Colony formation assay; type: cell-based; conditions: 200 nM, 14 days
Method: as §3

[14] = system: NCI-H520 cells; assay: Colony formation assay; type: cell-based; conditions: 500 nM
Method: as §3

[15] = system: LK2 cells; assay: Colony formation assay; type: cell-based; conditions: 500 nM
Method: as §3

[16] = biological target: T1, LZK; assay: In vitro kinase assay, LZK phosphorylation of MKK7; type: biochemical
Method: The assay was performed with 100 μM ATP at 37° C. for 30 minutes. Following the addition of 4× reducing SDS sample buffer, proteins were resolved by sodium dodecyl sulfate-polyacrylamide gel electrophoresis (SDS-PAGE) and immunoblot analysis was performed as stated previously.

[17] = biological target: T1, LZK; assay: Phospho-JNK ELISA in doxycycline-induced CAL33 cells expressing LZK; type: cell-based
Text: The ViraPower HiPerform T-REx Gateway Expression System (Invitrogen) was used to generate cells with tetracycline-inducible expression of LZK. In brief, wild-type (WT) or drug-resistant mutant (Q240S) LZK (cloned into pLenti6.3/TO/V5-DEST vector) and pLenti3.3/TR (for tetracycline repressor expression) were transfected into 293FT cells using Lipofectamine 2000 to generate lentiviral stock. Cell lines were generated by antibiotic selection (blasticidin [Gibco] and geneticin [Gibco]). Doxycycline (Sigma-Aldrich) was used at 1 μg/mL to induce LZK expression.
A PathScan® Phospho-SAPK/JNK (Thr183/Tyr185) Sandwich ELISA Assay (Cell Signaling Technology) was used for ELISA assays following the manufacturer's protocol. In general, 500,000 cells were plated and treated with doxycycline the following day where appropriate and incubated at 37° C. for 48 hours. Cells were treated with the drug compound or control in 5% FBS media for 1 hour. After appropriate treatment time, cells were lysed on ice with 1× Cell Lysis Buffer (Cell Signaling Technology) supplemented with phosphatase and protease inhibitors (Sigma). Each diluted cell lysate was added to Phospho-SAPK/JNK (Thr183/Tyr185)Rabbit mAb Coated microwells in triplicate and incubated overnight at 4° C. Samples were treated with the following antibodies and incubated at 37° C. for 1 hour and 30 minutes, respectively: Detection Antibody and HRP-Linked secondary antibody. Samples were washed between treatments using 1× Wash Buffer according to the manufacturer's protocol. TMB substrate was added to each well and incubated at 37° C. for 10 minutes. Following this, STOPsolution was added to each well and absorbance was measured at 450 nm using iMark™ Microplate Absorbance Reader (Bio-Rad). Graphs display relative phospho-JNK levels.

[18] = biological target: T1, LZK; assay: KD determination, Eurofins DiscoveRx Kd-Elect; type: binding
Method: (§4) Substituents were varied to improve binding affinity to LZK and selectivity over DLK. KD values were measured by Eurofins DiscoveRx using the Kd-Elect system. Parallel artificial membrane permeability assay (PAMPA) values were measured by Cyprotex.
(§5) KD values were calculated with a standard dose-response curve using the Hill equation: […]
(§6) The Hill Slope was set to −1. Curves were fitted using a non-linear least square fit with the Levenberg-Marquardt algorithm.

[19] = biological target: DLK (Homo sapiens (Human), UniProt Q12852); assay: KD determination, Eurofins DiscoveRx Kd-Elect; type: binding
Method: as §4, §5, §6

[20] = system: OVCAR5 cells; assay: Colony formation assay; type: cell-based
Method: as §3

[21] = system: ESCC cells with the 3q amplicon; assay: Colony formation assay in ESCC cells; type: cell-based; conditions: drug resistant mutant form of LZK
Text: Crystal violet assays were used to assess relative cell growth and survival after treatment with specific compounds. […] Graphs display percent colony formation relative to the DMSO-treated control sample.

[22] = b.i.d., five days on/two days off

T1 sequence (O43283 whole entry): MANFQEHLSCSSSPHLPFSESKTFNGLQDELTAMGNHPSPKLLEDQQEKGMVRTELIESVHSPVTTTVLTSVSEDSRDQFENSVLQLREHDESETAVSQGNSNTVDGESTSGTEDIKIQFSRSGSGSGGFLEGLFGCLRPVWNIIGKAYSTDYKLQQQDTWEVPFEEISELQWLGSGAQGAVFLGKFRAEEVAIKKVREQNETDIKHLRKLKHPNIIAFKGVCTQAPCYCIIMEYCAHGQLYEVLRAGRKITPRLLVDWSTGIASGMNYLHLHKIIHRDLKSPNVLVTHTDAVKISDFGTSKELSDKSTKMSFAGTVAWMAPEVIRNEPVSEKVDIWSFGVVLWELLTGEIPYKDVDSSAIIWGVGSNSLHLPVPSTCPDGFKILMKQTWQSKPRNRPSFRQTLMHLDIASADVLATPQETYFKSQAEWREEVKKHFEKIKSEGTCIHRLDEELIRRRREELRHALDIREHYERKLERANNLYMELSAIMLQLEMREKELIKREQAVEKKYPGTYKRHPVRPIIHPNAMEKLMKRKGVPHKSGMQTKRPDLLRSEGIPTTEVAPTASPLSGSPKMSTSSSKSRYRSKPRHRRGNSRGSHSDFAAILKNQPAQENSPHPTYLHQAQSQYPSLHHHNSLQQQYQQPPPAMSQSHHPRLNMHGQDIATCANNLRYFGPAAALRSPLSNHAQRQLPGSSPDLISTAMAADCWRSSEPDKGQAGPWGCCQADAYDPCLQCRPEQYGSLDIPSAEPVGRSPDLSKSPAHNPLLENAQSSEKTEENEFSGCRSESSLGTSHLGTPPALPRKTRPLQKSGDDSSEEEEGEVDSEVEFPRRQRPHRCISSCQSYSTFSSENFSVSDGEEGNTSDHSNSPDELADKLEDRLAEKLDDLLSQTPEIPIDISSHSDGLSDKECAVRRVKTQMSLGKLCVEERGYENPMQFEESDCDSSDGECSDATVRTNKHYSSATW
Chain of DLK (Q12852 whole entry): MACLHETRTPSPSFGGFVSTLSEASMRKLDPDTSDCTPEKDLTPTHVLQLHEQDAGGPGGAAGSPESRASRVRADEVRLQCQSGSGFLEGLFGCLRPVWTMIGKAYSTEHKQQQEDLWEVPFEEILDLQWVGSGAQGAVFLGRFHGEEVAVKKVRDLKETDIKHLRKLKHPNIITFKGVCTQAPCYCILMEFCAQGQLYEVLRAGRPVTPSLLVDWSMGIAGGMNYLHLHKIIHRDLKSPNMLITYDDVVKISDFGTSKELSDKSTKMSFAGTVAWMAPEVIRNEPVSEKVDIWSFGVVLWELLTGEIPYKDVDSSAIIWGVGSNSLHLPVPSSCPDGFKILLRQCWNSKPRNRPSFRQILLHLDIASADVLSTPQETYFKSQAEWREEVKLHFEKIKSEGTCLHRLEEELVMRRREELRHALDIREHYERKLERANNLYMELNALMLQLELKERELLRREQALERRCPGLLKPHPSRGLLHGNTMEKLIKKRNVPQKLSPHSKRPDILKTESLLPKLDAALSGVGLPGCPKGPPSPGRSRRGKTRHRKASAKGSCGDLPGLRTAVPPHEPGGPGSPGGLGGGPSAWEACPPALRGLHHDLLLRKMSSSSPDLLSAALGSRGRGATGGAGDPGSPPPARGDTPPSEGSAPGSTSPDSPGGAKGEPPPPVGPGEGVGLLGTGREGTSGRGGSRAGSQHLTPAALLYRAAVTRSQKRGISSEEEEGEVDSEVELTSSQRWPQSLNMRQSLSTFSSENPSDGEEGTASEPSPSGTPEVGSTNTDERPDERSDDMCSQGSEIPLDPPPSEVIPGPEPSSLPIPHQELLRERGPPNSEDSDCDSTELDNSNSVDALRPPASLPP
Chain of LZK (Homo sapiens, UniProt O43283, Q240S) (O43283 whole entry Q240S): as the sequence (O43283 whole entry) above, with Q240S counted along it

N#Cc1ccnc(Nc2cc(C3CCN(C4COC4)CC3)cc(N3CCC(F)(F)C3)n2)c1 [GNE-3511]
c-MYC levels with LZK^Q240S expression ([1]; CAL33 cells treated with inhibitor): rescued loss in c-MYC levels
c-MYC levels ([1]; CAL33 cells, 500 nM, within the first hour, maintained for 72 hours): reduction in c-MYC levels
tumor volumes [2]: no decrease in tumor volumes
body weights of the mice ([3]; 50 mg/kg daily): no effect on body weights
mice with no detectable tumors ([3]; 50 mg/kg, n=10): 3 mice
tumor growth ([3]; 50 mg/kg, q.d., five days on/two days off): significantly suppress HNSCC tumor growth in vivo with almost complete tumor regression
specificity of LZK inhibition (rescue of JNK signaling by LZK^Q240S) [4]: specifically inhibits LZK
IC50 [5]: 410 ± 59.6 nM
JNK signaling with LZK^Q240S drug-resistant mutant expression [6]: maintained catalytic activity
duration of JNK pathway inactivation ([7]; 250 nM): up to 72 hours
time at which LZK activity toward JNK was inhibited ([7]; 250 nM): ≤ 15 min
inhibition of LZK activity in cells (downstream JNK phosphorylation) ([7]; Western blot): potent LZK inhibitor in cells
sensitivity (viability) [8]: sensitive
cleaved caspase-3 expression (IHC) in tumors [9]: increase in cleaved caspase-3 expression
tumor growth [9]: tumor growth was suppressed
body weight [9, 22]: decreases in body weight
toxicity [9, 22]: terminated early due to toxicity
reduction in colony formation [10]: minor reduction in colony formation
reduction in colony formation [11]: minor reduction in colony formation
reduction in colony formation [12]: ≥ 80%
reduction in colony formation [13]: ≥ 80%
reduction in colony formation [14]: 55%
reduction in colony formation [15]: 45%
in vitro phosphorylation of MKK7 [16]: decreased in vitro phosphorylation of MKK7

Cc1cnc(Nc2cc(C3CCN(CC4CC4)CC3)cc(N3CCC(F)(F)C3)n2)cn1 [compound 161]
dose-dependent inhibition of LZK [17]: dose-dependent inhibition
Ratio (LZK/DLK) ([18]; ratio of LZK Kd to DLK Kd): 0.8
Kd ([18]; read-out: Kd values): 3.3 nM
Kd ([18]; read-out: LZK KD): 3.3 nM
Kd [19]: 4.3 nM
sensitivity (colony formation) [20]: sensitive
sensitivity (colony formation) of ESCC cells expressing LZK^Q240S [21]: resistant to compound 161
